Source: ChEMBL document CHEMBL1201862, “PubChem BioAssay data set” (2004)
Active and inactive are the calls of the source.

How the values were obtained:
[1] = biological target: T1, Protein RecA (Mycobacterium tuberculosis, UniProt P9WHJ3); test: Fluorescence Cell-Free Homogeneous Dose Retest to Identify Inhibitors of RecA-Intein Splicing Activity. [Related pubchem assays (depositor defined):AID2097, AID2223, AID489010, AID492950]; type: functional
T1 sequence (P9WHJ3 whole entry): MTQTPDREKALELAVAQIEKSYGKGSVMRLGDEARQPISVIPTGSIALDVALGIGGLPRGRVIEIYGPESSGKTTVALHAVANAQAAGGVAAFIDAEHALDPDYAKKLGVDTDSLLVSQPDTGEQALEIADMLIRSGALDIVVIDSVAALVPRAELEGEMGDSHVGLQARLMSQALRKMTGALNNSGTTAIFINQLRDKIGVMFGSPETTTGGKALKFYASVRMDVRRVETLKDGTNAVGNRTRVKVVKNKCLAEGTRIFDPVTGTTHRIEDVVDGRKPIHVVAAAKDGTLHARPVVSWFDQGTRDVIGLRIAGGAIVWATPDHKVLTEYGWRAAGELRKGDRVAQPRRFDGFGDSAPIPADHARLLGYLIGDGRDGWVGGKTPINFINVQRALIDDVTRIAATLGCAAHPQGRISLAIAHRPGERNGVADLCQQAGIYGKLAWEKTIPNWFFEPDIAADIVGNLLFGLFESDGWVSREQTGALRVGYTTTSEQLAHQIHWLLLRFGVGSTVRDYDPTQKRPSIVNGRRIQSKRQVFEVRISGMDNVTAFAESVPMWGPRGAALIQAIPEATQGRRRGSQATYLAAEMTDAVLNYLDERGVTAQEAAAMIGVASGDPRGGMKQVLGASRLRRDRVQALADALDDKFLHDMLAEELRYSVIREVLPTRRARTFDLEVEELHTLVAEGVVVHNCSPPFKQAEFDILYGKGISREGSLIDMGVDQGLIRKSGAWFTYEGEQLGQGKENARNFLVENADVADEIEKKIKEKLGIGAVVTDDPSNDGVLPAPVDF

[2] = biological target: T2, Replicative DNA helicase DnaB (Mycobacterium tuberculosis, UniProt P9WMR3); test: DnaB intein splicing inhibitors, dose response, biochemical, cell-free fluorescence (AID 449749); type: functional
T2 sequence (P9WMR3 whole entry): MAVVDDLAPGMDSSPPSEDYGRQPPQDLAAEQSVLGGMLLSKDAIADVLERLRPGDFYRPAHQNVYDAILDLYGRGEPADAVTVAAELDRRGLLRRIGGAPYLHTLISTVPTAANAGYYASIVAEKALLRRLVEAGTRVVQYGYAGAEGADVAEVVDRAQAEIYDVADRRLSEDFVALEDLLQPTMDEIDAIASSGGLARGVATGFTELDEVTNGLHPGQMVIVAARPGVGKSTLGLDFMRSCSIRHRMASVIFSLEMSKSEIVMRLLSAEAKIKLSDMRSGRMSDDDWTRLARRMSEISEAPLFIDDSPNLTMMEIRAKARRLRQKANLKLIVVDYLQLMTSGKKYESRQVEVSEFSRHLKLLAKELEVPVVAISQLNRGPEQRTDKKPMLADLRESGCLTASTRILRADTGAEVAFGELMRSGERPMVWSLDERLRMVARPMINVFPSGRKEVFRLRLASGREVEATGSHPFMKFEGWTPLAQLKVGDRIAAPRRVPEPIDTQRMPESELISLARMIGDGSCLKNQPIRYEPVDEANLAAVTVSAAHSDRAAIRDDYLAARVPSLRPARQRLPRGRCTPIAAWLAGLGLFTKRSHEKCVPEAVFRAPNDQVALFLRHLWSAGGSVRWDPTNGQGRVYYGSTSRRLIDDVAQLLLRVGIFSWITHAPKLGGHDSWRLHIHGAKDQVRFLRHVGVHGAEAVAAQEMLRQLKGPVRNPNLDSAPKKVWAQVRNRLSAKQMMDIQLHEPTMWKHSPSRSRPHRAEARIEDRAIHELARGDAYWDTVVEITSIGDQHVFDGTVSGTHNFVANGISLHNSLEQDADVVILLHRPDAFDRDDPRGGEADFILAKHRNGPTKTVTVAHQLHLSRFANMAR

[3] = biological target: Cytochrome P450 2D6 (Homo sapiens, UniProt P10635);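 also: CYP2D6 member of a cytochrome P450 panel assay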
[4] = biological target: Cytochrome P450 3A4 (Homo sapiens, UniProt P08684);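 also: CYP3A4 tested as one member of a cytochrome P450 panel screen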
[5] = biological target: Cytochrome P450 2C19 (Homo sapiens, UniProt P33261); test: Cytochrome panel assay with activity outcomes. Panel member name: p450-cyp2c19 Compounds with AC50 equal or less than 10 uM are considered active; type: functional; details: read-out: AC50
[6] = biological target: T3, Polyadenylate-binding protein 1 (Homo sapiens, UniProt P11940); test: PABP1 MLLE–PAM2 binding inhibitor potency, dose response, biochemical, fluorescence polarization, FITC-PAM2 peptide (AID 602259); type: functional; details: read-out: IC50_Mean
[7] = biological target: T3, Polyadenylate-binding protein 1; test: PABP1 MLLE–PAM2 interaction inhibitors, dose response, miRNA deadenylation inhibitor project, biochemical, fluorescence polarization, Cy5-PAM2 peptide, secondary (AID 602260); type: functional; details: read-out: IC50_Mean
[8] = biological target: T4, Cytochrome P450 1A2 (Homo sapiens, UniProt P05177);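 also: PubChem cytochrome P450 panel assay, CYP1A2 panel member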
T4 sequence (P05177 whole entry): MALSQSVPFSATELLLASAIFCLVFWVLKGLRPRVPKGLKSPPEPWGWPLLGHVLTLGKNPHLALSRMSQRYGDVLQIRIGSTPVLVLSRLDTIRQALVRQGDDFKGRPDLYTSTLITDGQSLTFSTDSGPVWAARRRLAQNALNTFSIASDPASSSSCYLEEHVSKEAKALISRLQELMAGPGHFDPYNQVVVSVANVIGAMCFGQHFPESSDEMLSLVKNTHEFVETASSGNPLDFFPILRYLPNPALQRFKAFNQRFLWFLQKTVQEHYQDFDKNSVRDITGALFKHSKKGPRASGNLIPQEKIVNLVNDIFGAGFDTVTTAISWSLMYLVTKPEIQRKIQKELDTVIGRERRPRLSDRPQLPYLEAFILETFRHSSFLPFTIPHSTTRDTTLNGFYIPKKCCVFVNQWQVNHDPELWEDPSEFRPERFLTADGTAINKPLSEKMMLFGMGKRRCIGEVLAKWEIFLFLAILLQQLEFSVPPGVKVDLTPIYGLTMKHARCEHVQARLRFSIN

[9] = biological target: Cytochrome P450 2C9 (Homo sapiens, UniProt P11712)
[10] = biological target: T5, Corticotropin-releasing factor receptor 2/Corticotropin-releasing factor-binding protein (Homo sapiens, UniProt P24387+Q13324); test: activators of CRF receptor 2 with binding protein – uHTS hits, confirmation (AID 602473); type: functional; details: read-out: EC50_Mean
T5 sequence (Q13324 whole entry): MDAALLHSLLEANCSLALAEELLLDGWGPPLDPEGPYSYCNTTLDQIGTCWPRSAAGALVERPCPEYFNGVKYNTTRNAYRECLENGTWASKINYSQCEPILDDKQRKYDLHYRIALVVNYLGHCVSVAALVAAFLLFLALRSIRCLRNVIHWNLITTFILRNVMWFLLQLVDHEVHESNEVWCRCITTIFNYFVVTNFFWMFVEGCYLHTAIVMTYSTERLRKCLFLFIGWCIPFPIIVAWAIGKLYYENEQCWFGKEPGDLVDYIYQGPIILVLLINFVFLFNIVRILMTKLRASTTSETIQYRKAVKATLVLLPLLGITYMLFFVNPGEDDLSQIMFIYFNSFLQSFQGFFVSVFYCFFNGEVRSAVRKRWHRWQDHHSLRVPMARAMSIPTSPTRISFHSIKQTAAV
T5 sequence (P24387 whole entry): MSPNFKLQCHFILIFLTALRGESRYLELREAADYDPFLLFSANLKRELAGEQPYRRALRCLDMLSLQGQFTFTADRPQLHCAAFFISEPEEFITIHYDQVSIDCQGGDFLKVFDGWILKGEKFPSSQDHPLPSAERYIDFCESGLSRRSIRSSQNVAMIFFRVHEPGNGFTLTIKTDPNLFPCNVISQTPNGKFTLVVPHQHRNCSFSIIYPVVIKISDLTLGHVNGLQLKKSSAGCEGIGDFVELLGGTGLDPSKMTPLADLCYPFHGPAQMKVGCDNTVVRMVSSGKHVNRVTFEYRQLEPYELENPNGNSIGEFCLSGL

Cytochrome P450 2C9, sequence (P11712 whole entry): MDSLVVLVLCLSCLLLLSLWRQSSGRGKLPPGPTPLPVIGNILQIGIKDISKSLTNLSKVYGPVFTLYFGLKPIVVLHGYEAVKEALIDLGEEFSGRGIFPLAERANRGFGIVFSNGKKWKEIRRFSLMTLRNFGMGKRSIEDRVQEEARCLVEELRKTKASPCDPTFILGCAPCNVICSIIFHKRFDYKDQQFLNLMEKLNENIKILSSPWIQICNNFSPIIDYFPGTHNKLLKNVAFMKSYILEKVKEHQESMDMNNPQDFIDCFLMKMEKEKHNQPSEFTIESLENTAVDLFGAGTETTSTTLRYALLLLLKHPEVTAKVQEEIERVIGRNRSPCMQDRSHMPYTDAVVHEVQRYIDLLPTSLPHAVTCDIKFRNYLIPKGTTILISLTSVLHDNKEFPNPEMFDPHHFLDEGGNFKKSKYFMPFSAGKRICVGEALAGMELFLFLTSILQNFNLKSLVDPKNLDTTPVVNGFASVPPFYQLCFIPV
Cytochrome P450 2D6, sequence (P10635 whole entry): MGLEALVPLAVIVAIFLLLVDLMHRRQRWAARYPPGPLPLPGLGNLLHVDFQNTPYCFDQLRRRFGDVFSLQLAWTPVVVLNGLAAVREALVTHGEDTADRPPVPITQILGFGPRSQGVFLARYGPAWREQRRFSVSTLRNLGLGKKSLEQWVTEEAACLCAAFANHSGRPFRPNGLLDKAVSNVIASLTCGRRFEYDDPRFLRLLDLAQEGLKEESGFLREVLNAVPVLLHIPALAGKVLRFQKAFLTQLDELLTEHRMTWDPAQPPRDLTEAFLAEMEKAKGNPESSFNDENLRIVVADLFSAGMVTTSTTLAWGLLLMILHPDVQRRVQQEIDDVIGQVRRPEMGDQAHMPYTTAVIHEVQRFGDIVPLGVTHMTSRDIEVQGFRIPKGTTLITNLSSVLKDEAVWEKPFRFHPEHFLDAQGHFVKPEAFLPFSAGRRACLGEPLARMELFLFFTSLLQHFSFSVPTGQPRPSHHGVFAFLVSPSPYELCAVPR
Cytochrome P450 3A4, sequence (P08684 whole entry): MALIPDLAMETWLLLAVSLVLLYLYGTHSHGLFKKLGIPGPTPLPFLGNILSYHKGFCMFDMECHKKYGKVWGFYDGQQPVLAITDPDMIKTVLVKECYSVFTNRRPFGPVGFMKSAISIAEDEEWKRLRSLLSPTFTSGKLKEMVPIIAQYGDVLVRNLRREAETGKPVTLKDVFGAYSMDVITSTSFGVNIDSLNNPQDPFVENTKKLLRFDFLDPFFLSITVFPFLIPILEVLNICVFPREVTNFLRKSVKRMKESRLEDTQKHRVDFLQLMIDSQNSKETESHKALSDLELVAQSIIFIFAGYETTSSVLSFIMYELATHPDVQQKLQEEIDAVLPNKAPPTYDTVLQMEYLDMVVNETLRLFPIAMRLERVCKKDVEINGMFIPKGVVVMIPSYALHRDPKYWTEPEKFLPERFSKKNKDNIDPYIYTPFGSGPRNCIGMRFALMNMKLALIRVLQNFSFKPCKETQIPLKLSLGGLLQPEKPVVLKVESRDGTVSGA
T3 sequence (P11940 whole entry): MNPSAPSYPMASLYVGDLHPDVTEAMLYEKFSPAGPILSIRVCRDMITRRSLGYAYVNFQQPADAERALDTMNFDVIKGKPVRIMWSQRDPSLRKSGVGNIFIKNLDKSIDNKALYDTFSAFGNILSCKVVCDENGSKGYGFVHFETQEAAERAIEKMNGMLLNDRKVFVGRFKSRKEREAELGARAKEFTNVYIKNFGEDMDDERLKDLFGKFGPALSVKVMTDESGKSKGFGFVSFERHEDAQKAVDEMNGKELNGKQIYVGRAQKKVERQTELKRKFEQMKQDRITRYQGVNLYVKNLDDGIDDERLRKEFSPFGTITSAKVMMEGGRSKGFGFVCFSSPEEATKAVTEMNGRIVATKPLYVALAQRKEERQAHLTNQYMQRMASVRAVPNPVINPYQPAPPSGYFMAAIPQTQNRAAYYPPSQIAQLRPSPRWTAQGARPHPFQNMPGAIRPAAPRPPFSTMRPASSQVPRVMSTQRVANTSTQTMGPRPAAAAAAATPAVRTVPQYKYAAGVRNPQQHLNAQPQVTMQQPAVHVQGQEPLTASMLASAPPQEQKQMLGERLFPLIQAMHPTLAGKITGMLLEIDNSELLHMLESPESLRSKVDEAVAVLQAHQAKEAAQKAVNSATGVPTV
Cytochrome P450 2C19, sequence (P33261 whole entry): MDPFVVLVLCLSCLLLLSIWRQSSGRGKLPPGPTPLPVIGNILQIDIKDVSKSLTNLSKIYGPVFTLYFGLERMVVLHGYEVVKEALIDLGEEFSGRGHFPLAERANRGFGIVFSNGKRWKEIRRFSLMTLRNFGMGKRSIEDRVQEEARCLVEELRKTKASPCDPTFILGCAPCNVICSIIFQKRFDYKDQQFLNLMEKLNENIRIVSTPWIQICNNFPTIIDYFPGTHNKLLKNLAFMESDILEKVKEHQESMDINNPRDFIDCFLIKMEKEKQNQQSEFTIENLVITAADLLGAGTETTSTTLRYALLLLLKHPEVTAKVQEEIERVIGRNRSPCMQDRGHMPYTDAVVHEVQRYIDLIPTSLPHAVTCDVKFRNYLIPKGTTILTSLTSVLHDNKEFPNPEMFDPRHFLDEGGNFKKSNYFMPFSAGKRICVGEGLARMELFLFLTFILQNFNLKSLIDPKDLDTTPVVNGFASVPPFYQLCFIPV

COc1cccc(N2CC(C(=O)Nc3nnc(SCC(=O)c4ccccc4)s3)CC2=O)c1 (stereo not given)
EC50 [1]: > 380 µM (inactive)
AC50 [2]: 181 µM (active)

O=C(c1cc(C(F)(F)F)cc(C(F)(F)F)c1)N1CCC2(CC1)CN(c1ccccn1)C2
AC50 [3]: 12.6 µM (inconclusive)

Cc1noc(C)c1CSCC(=O)Oc1ccc(N(C)S(=O)(=O)c2ccccc2)cc1
EC50 [1]: 22.3 µM (active)
AC50 [2]: 4.1 µM (active)

COc1ccccc1CNc1cc(-c2ccccc2C)ncn1
AC50 [4]: 31.6 µM (inconclusive)
AC50 [3]: 15.8 µM (inconclusive)

CN(Cc1ccco1)c1ncncc1-c1ccoc1
AC50 [4]: 3.16 µM (inconclusive)
AC50 [5]: 39.8 µM (inconclusive)
AC50 [3]: 39.8 µM (inconclusive)

O=C(NC(=S)Nc1cccnc1)c1cccs1
IC50 [6]: > 66 µM (inactive)
IC50 [7]: > 66 µM (inactive)

Cc1ccccc1-c1nc(C[S+]([O-])CC(=O)N2CCC3(CC2)OCCO3)c(C)o1 (stereo not given)
AC50 [8]: 25.1 µM (inconclusive)
AC50 [3]: 25.1 µM (inconclusive)

CN(C)c1ncc2nc(CCc3ccccc3)c(=O)n(Cc3ccc(F)cc3)c2n1
AC50 [4]: 3.98 µM (inconclusive)
AC50 [3]: 25.1 µM (inconclusive)

COc1cccc(Nc2c([N+](=O)[O-])cncc2[N+](=O)[O-])c1
EC50 [1]: 8.86 µM (active)
AC50 [2]: 12.9 µM (active)

COC(=O)c1c(C)oc2ccc(N(C(=O)c3ccncc3)S(=O)(=O)c3ccccc3)cc12
AC50 [3]: 0.0355 µM (inconclusive)

CN(C1CCCCC1)S(=O)(=O)c1ccc(S)nc1
IC50 [6]: > 66 µM (inactive)
IC50 [7]: > 66 µM (inactive)

Cc1n[nH]c2c1C(c1cnn(C)c1)C(C#N)=C(N)O2 (stereo not given)
EC50 [1]: 3.67 µM (active)
AC50 [2]: 14.2 µM (active)

O=C(N/N=C\c1ccc(-c2ccccc2[N+](=O)[O-])o1)C1COc2ccccc2O1 (stereo not given)
EC50 [1]: 12.4 µM (active)
AC50 [2]: 7.94 µM (active)

CCOc1ccc(-n2c(C)nc3cc(C(=O)NCc4ccco4)ccc32)cc1
AC50 [8]: 25.1 µM (inconclusive)
AC50 [3]: 11.2 µM (inconclusive)

Cc1ccc(C(=O)NC(=S)NNS(=O)(=O)c2ccccc2)cc1
IC50 [6]: > 66 µM (inactive)
IC50 [7]: > 66 µM (inactive)

CCS(=O)(=O)C1=NN2C(=N)/C(=C\c3ccc(OC(=O)c4ccco4)cc3)C(=O)N=C2S1
EC50 [1]: 19.4 µM (active)
AC50 [2]: > 380 µM (inactive)

Cc1cc(O)nc(SCn2nnc3ccccc3c2=O)n1
IC50 [6]: > 66 µM (inactive)
IC50 [7]: > 66 µM (inactive)

CCN1CCc2c(C#N)c(N3CCOCC3)nc(NCCO)c2C1
IC50 [6]: > 66 µM (inactive)
IC50 [7]: > 66 µM (inactive)

O=[N+]([O-])/C=C\c1cc2ccccc2[nH]1
AC50 [5]: 5.01 µM (inconclusive)
AC50 [3]: 5.01 µM (inconclusive)

CN(C)/C=N/c1ccc2nn(-c3ccccc3)nc2c1
AC50 [9]: 15.8 µM (inconclusive)
AC50 [3]: 25.1 µM (inconclusive)

CCN(CC(=O)NCc1ccc(Cl)cc1)C(=O)CNS(=O)(=O)c1ccc(NC(C)=O)cc1
IC50 [6]: > 66 µM (inactive)
IC50 [7]: > 66 µM (inactive)

Cc1ccc(NC(=O)CSc2ncnc3ccccc23)cc1S(=O)(=O)N1CCCCCC1
EC50 [1]: 2.66 µM (active)
AC50 [2]: 20.1 µM (active)

COc1ccc(CCC(C)Nc2cccc(F)c2)cc1 (stereo not given)
AC50 [3]: 10 µM (inconclusive)

CC1(C)CC2(C)OC(=N)C1(C#N)C2(C#N)C#N (stereo not given)
EC50 [1]: 12.3 µM (active)
AC50 [2]: 70.3 µM (active)

O=C(CSc1ncnc2c1nnn2Cc1ccc(F)cc1)NCC1CCCO1 (stereo not given)
EC50 [1]: 10.2 µM (active)
AC50 [2]: 14.3 µM (active)

Nc1nc(NCCc2ccc(O)cc2)nc2nc(-c3ccco3)nn12 [ZM-241385]
AC50 [9]: 39.8 µM (inconclusive)
AC50 [8]: 31.6 µM (inconclusive)
AC50 [3]: 10 µM (inconclusive)

O=Cc1c(N2CCN(CCO)CC2)nc2ccccn2c1=O
IC50 [6]: > 66 µM (inactive)
IC50 [7]: > 66 µM (inactive)
EC50 [10]: > 53 µM (inactive)

Cn1cccc1C(=O)N1CCC2(CCCN(c3ccccn3)C2)CC1
AC50 [4]: 20 µM (inconclusive)
AC50 [9]: 25.1 µM (inconclusive)
AC50 [8]: 20 µM (inconclusive)
AC50 [3]: 25.1 µM (inconclusive)

COc1ccc(CCN(C)Cc2ccc(OCc3ccccc3)c(OC)c2)cc1OC
AC50 [9]: 15.8 µM (inconclusive)
AC50 [8]: 39.8 µM (inconclusive)
AC50 [3]: 14.1 µM (inconclusive)

Cc1ccc(C(=O)NC(=S)Nc2cccc(-c3nc4ccccc4s3)c2)cc1
IC50 [6]: > 66 µM (inactive)
IC50 [7]: > 66 µM (inactive)

Cc1cc(C)n(N=C(S)NC2CCCCC2)c(=O)c1C#N
IC50 [6]: > 66 µM (inactive)
IC50 [7]: > 66 µM (inactive)
